Assay results taken from PubChem BioAssay AID2060883 (Molecular Pharmacology Branch, DTP, NCI, 2025).

Test system: 843782-103-R-J1-PDC complex spheroid viability
Test: Anticancer human tumor 843782-103-R-J1-PDC patient-derived lung adenocarcinoma cell line growth inhibition [RAS]
Settings: for IC50: curve of first compound; for viability, T/C: stronger effect = lower value
Outline: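 Agents were tested in combination matrices in half-log decrements from a top concentration at or near clinical Cmax (10 microM if undetermined). Targets were multi-cell spheroids of tumour lines plus HUVEC and MSC stromal cells.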

[1] = second compound 0.0316 µM, first compound 0.00316 µM
[2] = second compound 0.0316 µM, first compound 0.01 µM
[3] = second compound 0.0316 µM, first compound 0.0316 µM
[4] = second compound 0.0316 µM, first compound 0.1 µM
[5] = second compound 0.0316 µM, first compound 0.316 µM
[6] = second compound 0.0316 µM, first compound 1 µM
[7] = second compound 0.1 µM, first compound 0.00316 µM
[8] = second compound 0.1 µM, first compound 0.01 µM
[9] = second compound 0.1 µM, first compound 0.0316 µM
[10] = second compound 0.1 µM, first compound 0.1 µM
[11] = second compound 0.1 µM, first compound 0.316 µM
[12] = second compound 0.1 µM, first compound 1 µM
[13] = second compound 0.316 µM, first compound 0.00316 µM
[14] = second compound 0.316 µM, first compound 0.01 µM
[15] = second compound 0.316 µM, first compound 0.0316 µM
[16] = second compound 0.316 µM, first compound 0.1 µM
[17] = second compound 0.316 µM, first compound 0.316 µM
[18] = second compound 0.316 µM, first compound 1 µM
[19] = second compound 1 µM, first compound 0.00316 µM
[20] = second compound 1 µM, first compound 0.01 µM
[21] = second compound 1 µM, first compound 0.0316 µM
[22] = second compound 1 µM, first compound 0.1 µM
[23] = second compound 1 µM, first compound 0.316 µM
[24] = second compound 1 µM, first compound 1 µM
[25] = second compound 3.16 µM, first compound 0.00316 µM
[26] = second compound 3.16 µM, first compound 0.01 µM
[27] = second compound 3.16 µM, first compound 0.0316 µM
[28] = second compound 3.16 µM, first compound 0.1 µM
[29] = second compound 3.16 µM, first compound 0.316 µM
[30] = second compound 3.16 µM, first compound 1 µM
[31] = second compound 10 µM, first compound 0.00316 µM
[32] = second compound 10 µM, first compound 0.01 µM
[33] = second compound 10 µM, first compound 0.0316 µM
[34] = second compound 10 µM, first compound 0.1 µM
[35] = second compound 10 µM, first compound 0.316 µM
[36] = second compound 10 µM, first compound 1 µM
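Further: viability read after seven days of compound exposure.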

SMILES: C=CC(=O)N1CCN(c2nc(OCC3CCCN3C)nc3c(F)c(-c4nc(N)cc(C)c4C(F)(F)F)c(Cl)cc23)C(C)C1 (stereo unspecified) + C#Cc1c(F)ccc2cc(O)cc(-c3ncc4c(N5CC6CCC(C5)N6)nc(OCC56CCCN5CC(F)C6)nc4c3F)c12
- IC50 (second compound 0.0316 µM): > 1000 nM
- IC50 (second compound 0.1 µM): > 1000 nM
- IC50 (second compound 0.316 µM): > 1000 nM
- IC50 (second compound 1 µM): > 1000 nM
- IC50 (second compound 3.16 µM): > 1000 nM
- IC50 (second compound 10 µM): < 3.16 nM
- viability, T/C [1]: 89.9%
- viability, T/C [2]: 81.1%
- viability, T/C [3]: 83.3%
- viability, T/C [4]: 76.3%
- viability, T/C [5]: 88.4%
- viability, T/C [6]: 79.5%
- viability, T/C [7]: 89.7%
- viability, T/C [8]: 83.1%
- viability, T/C [9]: 74.4%
- viability, T/C [10]: 78.1%
- viability, T/C [11]: 69.8%
- viability, T/C [12]: 80.6%
- viability, T/C [13]: 86.5%
- viability, T/C [14]: 68.1%
- viability, T/C [15]: 74.8%
- viability, T/C [16]: 78.8%
- viability, T/C [17]: 77.4%
- viability, T/C [18]: 76.1%
- viability, T/C [19]: 81%
- viability, T/C [20]: 74.1%
- viability, T/C [21]: 79.3%
- viability, T/C [22]: 69.3%
- viability, T/C [23]: 65.8%
- viability, T/C [24]: 68.5%
- viability, T/C [25]: 62.2%
- viability, T/C [26]: 67.2%
- viability, T/C [27]: 70%
- viability, T/C [28]: 64.3%
- viability, T/C [29]: 60.1%
- viability, T/C [30]: 64.5%
- viability, T/C [31]: 39.6%
- viability, T/C [32]: 57%
- viability, T/C [33]: 44.8%
- viability, T/C [34]: 49.7%
- viability, T/C [35]: 40.5%
- viability, T/C [36]: 40.5%

SMILES: CCc1c2c(nc3ccc(O)cc13)-c1cc3c(c(=O)n1C2)COC(=O)[C@]3(O)CC + CCn1c(-c2cccnc2C(C)OC)c2c3cc(ccc31)N1CCOC(CC(NC(=O)C(C(C)C)N(C)C(=O)C3(F)CCN(C(=O)C#CC(C)(C)N(C)C)CC3)C(=O)N3CCCC(N3)C(=O)OCC(C)(C)C2)C1
- IC50 (second compound 0.000949 µM): 1.49 nM
- IC50 (second compound 0.003 µM): 1.45 nM
- IC50 (second compound 0.00949 µM): 1.26 nM
- IC50 (second compound 0.03 µM): 1.27 nM
- IC50 (second compound 0.0949 µM): 1.46 nM
- IC50 (second compound 0.3 µM): 1.23 nM
- viability, T/C (second compound 0.000949 µM, first compound 0.000949 µM): 67.3%
- viability, T/C (second compound 0.000949 µM, first compound 0.003 µM): 23.5%
- viability, T/C (second compound 0.000949 µM, first compound 0.00949 µM): 6.26%
- viability, T/C (second compound 0.000949 µM, first compound 0.03 µM): 2.82%
- viability, T/C (second compound 0.000949 µM, first compound 0.0949 µM): 1.64%
- viability, T/C (second compound 0.000949 µM, first compound 0.3 µM): 1.49%
- viability, T/C (second compound 0.003 µM, first compound 0.000949 µM): 63.3%
- viability, T/C (second compound 0.003 µM, first compound 0.003 µM): 27%
- viability, T/C (second compound 0.003 µM, first compound 0.00949 µM): 5.6%
- viability, T/C (second compound 0.003 µM, first compound 0.03 µM): 2.52%
- viability, T/C (second compound 0.003 µM, first compound 0.0949 µM): 1.9%
- viability, T/C (second compound 0.003 µM, first compound 0.3 µM): 1.58%
- viability, T/C (second compound 0.00949 µM, first compound 0.000949 µM): 59.1%
- viability, T/C (second compound 0.00949 µM, first compound 0.003 µM): 22.9%
- viability, T/C (second compound 0.00949 µM, first compound 0.00949 µM): 6.03%
- viability, T/C (second compound 0.00949 µM, first compound 0.03 µM): 2.26%
- viability, T/C (second compound 0.00949 µM, first compound 0.0949 µM): 1.84%
- viability, T/C (second compound 0.00949 µM, first compound 0.3 µM): 2.05%
- viability, T/C (second compound 0.03 µM, first compound 0.000949 µM): 59.7%
- viability, T/C (second compound 0.03 µM, first compound 0.003 µM): 21.9%
- viability, T/C (second compound 0.03 µM, first compound 0.00949 µM): 3.99%
- viability, T/C (second compound 0.03 µM, first compound 0.03 µM): 2.11%
- viability, T/C (second compound 0.03 µM, first compound 0.0949 µM): 1.92%
- viability, T/C (second compound 0.03 µM, first compound 0.3 µM): 1.55%
- viability, T/C (second compound 0.0949 µM, first compound 0.000949 µM): 68.9%
- viability, T/C (second compound 0.0949 µM, first compound 0.003 µM): 18.6%
- viability, T/C (second compound 0.0949 µM, first compound 0.00949 µM): 3.32%
- viability, T/C (second compound 0.0949 µM, first compound 0.03 µM): 1.45%
- viability, T/C (second compound 0.0949 µM, first compound 0.0949 µM): 1.1%
- viability, T/C (second compound 0.0949 µM, first compound 0.3 µM): 1.93%
- viability, T/C (second compound 0.3 µM, first compound 0.000949 µM): 59.3%
- viability, T/C (second compound 0.3 µM, first compound 0.003 µM): 17.8%
- viability, T/C (second compound 0.3 µM, first compound 0.00949 µM): 3.68%
- viability, T/C (second compound 0.3 µM, first compound 0.03 µM): 2.01%
- viability, T/C (second compound 0.3 µM, first compound 0.0949 µM): 1.36%
- viability, T/C (second compound 0.3 µM, first compound 0.3 µM): 1.25%

SMILES: Nc1ccn(C2OC(CO)C(O)C2(F)F)c(=O)n1 (stereo unspecified) + C#Cc1c(F)ccc2cc(O)cc(-c3ncc4c(N5CC6CCC(C5)N6)nc(OCC56CCCN5CC(F)C6)nc4c3F)c12
- IC50 (second compound 0.0316 µM): 29.3 nM
- IC50 (second compound 0.1 µM): 39.3 nM
- IC50 (second compound 0.316 µM): 42.6 nM
- IC50 (second compound 1 µM): 32.6 nM
- IC50 (second compound 3.16 µM): 21.8 nM
- IC50 (second compound 10 µM): 14.3 nM
- viability, T/C [1]: 101%
- viability, T/C [2]: 101%
- viability, T/C [3]: 46.1%
- viability, T/C [4]: 8.18%
- viability, T/C [5]: 2.69%
- viability, T/C [6]: 1.88%
- viability, T/C [7]: 99.5%
- viability, T/C [8]: 106%
- viability, T/C [9]: 59.7%
- viability, T/C [10]: 8.24%
- viability, T/C [11]: 1.77%
- viability, T/C [12]: 1.7%
- viability, T/C [13]: 107%
- viability, T/C [14]: 103%
- viability, T/C [15]: 65.4%
- viability, T/C [16]: 5.81%
- viability, T/C [17]: 2.1%
- viability, T/C [18]: 2.74%
- viability, T/C [19]: 110%
- viability, T/C [20]: 90.7%
- viability, T/C [21]: 54.1%
- viability, T/C [22]: 9.25%
- viability, T/C [23]: 2.99%
- viability, T/C [24]: 2.29%
- viability, T/C [25]: 93%
- viability, T/C [26]: 73.8%
- viability, T/C [27]: 40%
- viability, T/C [28]: 7.44%
- viability, T/C [29]: 2.53%
- viability, T/C [30]: 1.91%
- viability, T/C [31]: 64.6%
- viability, T/C [32]: 59.5%
- viability, T/C [33]: 30.3%
- viability, T/C [34]: 9.79%
- viability, T/C [35]: 3.81%
- viability, T/C [36]: 3%
